Experimental data as given in patent US8946282B2, “Indolin-2-one derivatives as protein kinase inhibitors” (Annji Pharmaceutical Co., Ltd., priority 2012, dated 2015).
Like-named read-outs stand apart in the source and are kept apart here.

Assays:
FLT-3 = molecular target: T1, FLT-3 (Homo sapiens, UniProt P36888); test: radioisotope-based P81 filter-binding assay, FLT-3 kinase; type: biochemical; conditions: for inhibition at 1 µM: compound at 1.0 μM, mean values (n=2), read-out: percent inhibition of enzyme catalytic activity, FLT-3 (numbers in parentheses); for IC50: averaged from two independent dose-response curves, read-out: Enzyme assay IC50 FLT-3
T1 sequence (P36888 27-993): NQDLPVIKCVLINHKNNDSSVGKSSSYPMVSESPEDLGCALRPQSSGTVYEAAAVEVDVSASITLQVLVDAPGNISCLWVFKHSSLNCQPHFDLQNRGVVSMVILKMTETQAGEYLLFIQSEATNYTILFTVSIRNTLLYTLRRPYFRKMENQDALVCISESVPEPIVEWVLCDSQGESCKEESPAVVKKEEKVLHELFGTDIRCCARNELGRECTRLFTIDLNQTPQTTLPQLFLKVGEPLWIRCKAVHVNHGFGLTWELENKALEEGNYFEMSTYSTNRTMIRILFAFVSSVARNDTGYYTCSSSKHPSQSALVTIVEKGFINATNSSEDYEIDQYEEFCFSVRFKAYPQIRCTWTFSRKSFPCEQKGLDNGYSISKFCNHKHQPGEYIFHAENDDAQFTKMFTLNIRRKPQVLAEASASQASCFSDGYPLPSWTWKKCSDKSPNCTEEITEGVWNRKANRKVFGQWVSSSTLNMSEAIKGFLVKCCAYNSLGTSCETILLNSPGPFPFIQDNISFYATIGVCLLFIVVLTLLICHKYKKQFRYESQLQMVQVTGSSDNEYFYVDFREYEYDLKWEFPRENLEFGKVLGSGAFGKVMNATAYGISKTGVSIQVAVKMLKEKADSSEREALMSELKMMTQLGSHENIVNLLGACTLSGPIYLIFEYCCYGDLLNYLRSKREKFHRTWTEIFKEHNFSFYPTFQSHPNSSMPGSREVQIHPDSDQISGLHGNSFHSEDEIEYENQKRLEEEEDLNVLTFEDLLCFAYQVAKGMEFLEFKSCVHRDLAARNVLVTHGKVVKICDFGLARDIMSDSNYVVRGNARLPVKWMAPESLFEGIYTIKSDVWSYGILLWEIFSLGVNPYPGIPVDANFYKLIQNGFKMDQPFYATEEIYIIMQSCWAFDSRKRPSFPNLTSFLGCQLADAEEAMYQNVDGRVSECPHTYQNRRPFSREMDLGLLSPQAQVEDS
Description: (§1) Compounds of formula (I)-(IV) were evaluated for abilities in inhibiting protein kinases aurora B and FLT-3 activity using radioisotope-based P81 filter-binding assay (Table 1).

aurora B = aurora B (Homo sapiens, UniProt Q96GD4); test: radioisotope-based P81 filter-binding assay, aurora B kinase; type: biochemical; conditions: for inhibition at 1 µM: compound at 1.0 μM, mean values (n=2), read-out: percent inhibition of enzyme catalytic activity, Aur B (numbers in parentheses); for IC50: read-out: Enzyme assay IC50 Aur B
Description: as §1

[1] = averaged from two independent dose-response curves

Sequence of aurora B (Q96GD4 whole entry): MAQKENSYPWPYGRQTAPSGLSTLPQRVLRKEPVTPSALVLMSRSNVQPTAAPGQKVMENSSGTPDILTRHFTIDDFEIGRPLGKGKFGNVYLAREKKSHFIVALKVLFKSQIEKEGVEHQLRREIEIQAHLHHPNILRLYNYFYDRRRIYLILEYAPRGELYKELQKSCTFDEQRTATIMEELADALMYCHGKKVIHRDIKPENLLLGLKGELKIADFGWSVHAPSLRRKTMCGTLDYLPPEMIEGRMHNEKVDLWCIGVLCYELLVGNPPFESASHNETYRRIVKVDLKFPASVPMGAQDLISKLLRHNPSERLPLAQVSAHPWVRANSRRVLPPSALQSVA

Row | SMILES | melting point | inhibition at 1 µM (FLT-3) [%] | inhibition at 1 µM (aurora B) [%] | IC50 (FLT-3) [nM] | IC50 (aurora B; [1]) [nM] | IC50 (aurora B) [nM]
1 | COc1ccc(C(=O)NC(=O)Nc2ccc3c(c2)NC(=O)C3=Cc2ccco2)cc1 (stereo in doubt) [D23, (E)-N-(3-(furan-2-ylmethylene)-2-oxoindolin-6-ylcarbamoyl)-4-methoxybenzamide] | 278 to 283 °C (dec.) | 15.4 | 44 |  |  | 
2 | COc1ccc(C(=O)NC(=O)Nc2cccc3c2/C(=C/c2ccc[nH]2)C(=O)N3)cc1 [D13, (Z)—N-(3-((1H-pyrrol-2-yl)methylene)-2-oxoindolin-4-ylcarbamoyl)-4-methoxybenzamide] |  |  | 11.2 | 58.2 |  | 
3 | COc1ccc(C(=O)NC(=O)Nc2ccc3c(c2)NC(=O)/C3=C/c2ccccc2)cc1 [D17, (E)-N-(3-benzylidene-2-oxoindolin-6-ylcarbamoyl)-4-methoxybenzamide] | 277 to 282 °C (dec.) | 34.4 | 61.2 |  |  | 
4 | COc1ccc(C(=O)NC(=O)Nc2ccc3c(c2)NC(=O)/C3=C/c2ccc(Cl)cc2)cc1 [D18, (E)-N-(3-(4-chlorobenzylidene)-2-oxoindolin-6-ylcarbamoyl)-4-methoxybenz-amide] | 278 to 283 °C (dec.) | 6.1 | 12.8 |  |  | 
5 | COc1ccc(/C=C2/C(=O)Nc3cc(NC(=O)NC(=O)c4ccc(OC)cc4)ccc32)cc1 [D19, (E)-4-methoxy-N-(3-(4-methoxybenzylidene)-2-oxoindolin-6-yl-carbamoyl)benzamide] | 274 to 279 °C (dec.) | 43.2 | 55.9 |  |  | 
6 | COc1ccc(C(=O)NC(=O)Nc2ccc3c(c2)NC(=O)/C3=C\c2ccccn2)cc1 [D20, (Z)-4-methoxy-N-(2-oxo-3-(pyridin-2-ylmethylene)indolin-6-ylcarbamoyl)benzamide] | 268 to 273 °C (dec.) |  | 28.7 | > 1000 |  | 
7 | COc1ccc(C(=O)NC(=O)Nc2ccc3c(c2)NC(=O)/C3=C\c2ccncc2)cc1 [D21, (Z)-4-methoxy-N-(2-oxo-3-(pyridin-4-ylmethylene)indolin-6-ylcarbamoyl)benzamide] | 270 to 275 °C (dec.) | 3.6 | 7 |  |  | 
8 | COc1ccc(C(=O)NC(=O)Nc2ccc3c(c2)NC(=O)/C3=C\c2cccs2)cc1 [D22, (Z)-4-methoxy-N-(2-oxo-3-(thiophen-2-ylmethylene)indolin-6-ylcarbamoyl)benzamide] | 262 to 267 °C (dec.) |  |  | > 1000 | 21.5 | 
9 | Cc1[nH]c(/C=C2\C(=O)Nc3cc(NC(=O)NC(=O)c4ccccc4)ccc32)c(C)c1C(=O)O [D32, (Z)-5-((6-(3-benzoylureido)-2-oxoindolin-3-ylidene)methyl)-2,4-dimethyl-1H-pyrrole-3-carboxylic acid] | 270 to 275 °C (dec.) |  |  | 904 | 2.1 | 
10 | Cc1[nH]c(/C=C2\C(=O)Nc3cc(NC(=O)NC(=O)c4ccc(Cl)c(Cl)c4)ccc32)c(C)c1C(=O)O [D34, (Z)-5-((6-(3-(3,4-dichlorobenzoyl)ureido)-2-oxoindolin-3-ylidene)methyl)-2,4-dimethyl-1H-pyrrole-3-carboxylic acid] | 295 to 300 °C (dec.) |  |  | 54.2 | 2.1 | 
11 | COc1ccc(C(=O)NC(=O)Nc2cc3c(cc2F)/C(=C/c2[nH]c(C)c(CCC(=O)O)c2C)C(=O)N3)cc1 [D51, (Z)-3-(5-((5-fluoro-6-(3-(4-methoxybenzoyl)ureido)-2-oxoindolin-3-ylidene)-methyl)-2,4-dimethyl-1H-pyrrol-3-yl)propanoic acid] |  |  |  |  |  | 3
12 | COc1ccc(C(=O)NC(=O)Nc2cc3c(cc2F)/C(=C/c2[nH]c(C)c(C(=O)O)c2C)C(=O)N3)c(F)c1 [D59, (Z)-5-((5-fluoro-6-(3-(2-fluoro-4-methoxybenzoyl)ureido)-2-oxoindolin-3-ylidene)methyl)-2,4-dimethyl-1H-pyrrole-3-carboxylic acid] |  |  |  | 406 | 3 | 

The next lines start with results.

Row | melting point | inhibition at 1 µM (FLT-3) [%] | inhibition at 1 µM (aurora B) [%] | IC50 (FLT-3) [nM] | IC50 (aurora B; [1]) [nM] | SMILES | IC50 (aurora B) [nM]
13 | 270 to 275 °C (dec.) |  |  |  |  | Cc1[nH]c(/C=C2\C(=O)Nc3cc(NC(=O)NC(=O)c4ccc(Cl)c(C(F)(F)F)c4)ccc32)c(C)c1CCC(=O)O (hydrate or solvate) [D37, (Z)-3-(5-((6-(3-(4-chloro-3-(trifluoromethyl)benzoyl)ureido)-2-oxo-indolin-3-ylidene)methyl)-2,4-dimethyl-1H-pyrrol-3-yl)propanoic acid] | 
14 |  |  |  | 2.7 | 1.2 | COc1ccc(C(=O)NC(=O)Nc2ccc3c(c2)NC(=O)/C3=C\c2[nH]c(C)c(CCC(=O)O)c2C)cc1 [D47, (Z)-3-(5-((6-(3-(4-methoxybenzoyl)ureido)-2-oxoindolin-3-ylidene)methyl)-2,4-dimethyl-1H-pyrrol-3-yl)propanoic acid] | 
15 |  |  |  | 909 | 1.5 | COc1ccc(C(=O)NC(=O)Nc2cc3c(cc2F)/C(=C/c2[nH]c(C)c(C(=O)O)c2C)C(=O)N3)cc1 [D49] | 
16 |  |  |  | 10 | 1.3 | COc1ccc(C(=O)NC(=O)Nc2ccc3c(c2)NC(=O)/C3=C\c2[nH]c(C)c(CCC(=O)O)c2C)c(F)c1 [D58, (Z)-3-(5-((6-(3-(2-fluoro-4-methoxybenzoyl)uriedo)-2-oxoindolin-3-ylidene)methyl)-2,4-dimethyl-1H-pyrrol-3-yl)propanoic acid] | 
17 |  |  |  | 3840 | 218 | CCOC(=O)CCc1c(C)[nH]c(/C=C2\C(=O)Nc3cc(NC(=O)NC(=O)c4ccc(OC)cc4F)ccc32)c1C [D63, (Z)-ethyl-3-(5-((6-(3-(2-fluoro-4-methoxybenzoyl)ureido)-2-oxoindolin-3-ylidene)methyl)-2,4-dimethyl-1H-pyrrol-3-yl)propanoate] | 
18 |  |  |  |  | 29.6 | COc1ccc(NC(=O)CC(=O)Nc2ccc3c(c2)NC(=O)/C3=C\c2ccc[nH]2)cc1 [D76, (Z)—N^1-(3-((1H-pyrrol-2-yl)methylene)-2-oxoindolin-6-yl)-N^3-(4-methoxyphenyl)malonamide] | 
19 |  |  |  | > 10000 | 1.8 | O=C1Nc2cc(NC(=O)N3CCN(c4ccccc4F)C3=O)ccc2/C1=C/c1ccc[nH]1 [D90, (Z)—N-(3-((1H-pyrrol-2-yl)methylene)-2-oxoindolin-6-yl)-3-(2-fluorophenyl)-2-oxoimidazolidine-1-carboxamide] | 
20 |  |  |  | > 10000 | 4.4 | COc1ccc(N2CCN(C(=O)Nc3ccc4c(c3)NC(=O)/C4=C\c3ccc[nH]3)C2=O)c(F)c1 [D94, (Z)—N-(3-((1H-pyrrol-2-yl)methylene)-2-oxoindolin-6-yl)-3-(2-fluoro-4-methoxyphenyl)-2-oxoimidazolidine-1-carboxamide] | 
21 |  |  |  | 119 | 3.2 | Cc1[nH]c(/C=C2\C(=O)Nc3cc(NC(=O)N4CCN(C5CC5)C4=O)ccc32)c(C)c1CCC(=O)O [D98, (Z)-3-(5-((6-(3-cyclopropyl-2-oxoimidazolidine-1-carboxamido)-2-oxoindolin-3-ylidene)methyl)-2,4-dimethyl-1H-pyrrol-3-yl)propanoic acid] | 
22 |  |  |  | 2.9 | 6.2 | Cc1[nH]c(/C=C2\C(=O)Nc3cc(NC(=O)c4c[nH]cc(-c5ccc(F)cc5F)c4=O)ccc32)c(C)c1CCC(=O)O [D147, (Z)-3-(5-((6-(5-(2,4-difluorophenyl)-4-oxo-1,4-dihydropyridine-3-carboxamido)-2-oxoindolin-3-ylidene)methyl)-2,4-dimethyl-1H-pyrrol-3-yl)propanoic acid] | 
23 |  |  |  | 753 | 2.9 | Cc1[nH]c(/C=C2\C(=O)Nc3cc(NC(=O)c4c[nH]cc(-c5ccc(F)cc5)c4=O)ccc32)c(C)c1C(=O)N1CCOCC1 [D152, (Z)—N-(3-((3,5-dimethyl-4-(morpholine-4-carbonyl)-1H-pyrrol-2-yl)methylene)-2-oxoindolin-6-yl)-5-(4-fluorophenyl)-4-oxo-1,4-dihydropyridine-3-carboxamide] | 
24 |  |  |  | 2.7 | 73.9 | Cc1[nH]c(/C=C2\C(=O)Nc3cc(NC(=O)c4c[nH]cc(-c5ccc(F)cc5)c4=O)ccc32)c(C)c1CC(=O)N1CCOCC1 [D153, (Z)—N-(3-((3,5-dimethyl-4-(2-morpholino-2-oxoethyl)-1H-pyrrol-2-yl)methylene)-2-oxoindolin-6-yl)-5-(4-fluorophenyl)-4-oxo-1,4-dihydropyridine-3-carboxamide] | 
